In brackets after ≈: the same amount, converted by molar mass.
What was measured:
Assay type in all cases: in vivo
[1] = system: two-spotted mite (Tetranychus urticae Koch); assay: Mite Foliage Spray Test; conditions: foliar, 144 h, 6 days, read-out: Insect LD50, Mite
Description: (§1) Suspensions of the test compouns were prepared by dissolving one gram of compound in 50 milliliters of acetone in which had been dissolved 0.1 gram (10 percent of the weight of compound) of an alkylphenoxy polyethoxyethanol surfactant, as an emulsifying or dispersing agent. The resulting solution was mixed into 150 milliliters of water to give roughly 200 milliliters of a suspension containing the compound in finely divided form. The thus-prepared stock suspension contained 0.5 percent by weight of compound. The test concentrations in parts per million by weight employed in the tests described hereinbelow were obtained by appropriate dilutions of the stock suspension with water. The test procedures were as follows:
Adults and nymphal stage of the two-spotted mite (Tetranychus urticae Koch), reared on Tendergreen bean plants at 80±5 per cent relative humidity, were the test organisms. Infested leaves from a stock culture were placed on the primary leaves of two bean plants 6 to 8 inches in height, growing in a 21/2 inch clay pot. 150-200 Mites, a sufficient number for testing, transferred from the excised leaves to the fresh plants in a period of twenty four hours. Following the twenty four hour transfer period, the excised leaves were removed from the infested plants. The test compounds were formulated by diluting the stock suspension with water to give a suspension containing 500 parts of test compound per million parts of final formulation. The potted plants (one pot per compound) were placed on a revolving turntable and sprayed with 100-110 milliliters of test compound formulation by use of a DeVilbiss spray gun set at 40 psig. air pressure. This application, which lasted 25 seconds, was sufficient to wet the plants to run-off. As a control, 100-110 milliliters of a water solution containing acetone and emulsifier in the same concentrations as the test compound formulation, but containing no test compound, were also sprayed on infested plants. The sprayed plants were held at 80±5 per cent relative humidity for 6 days, after which a mortality count of motile forms was made. Microscopic examination for motile forms was made on the leaves of the test plants. Any individual which was capable of locomotion upon prodding was considered living.

[2] = system: bean, corn, tomato or cotton; assay: Phytotoxicity Test, crop plants overall; conditions: text statement
Description: (§2) Each of the new compounds were evaluated in comparison with known similar prior art compounds to determine their comparative pesticidal activity against mites and certain insects, including an aphid, caterpillar, a beetle and a fly. The new compounds were also tested for phytotoxicity on important economic crops including bean, corn, tomato and cotton. The new compounds were further evaluated for mammalian toxicity.
as §1
(§3) Experiments were also conducted to determine the phytotoxicity of representative compositions with respect to healthy fresh plants. Solutions of the compounds were prepared as described above to provide a concentration of 2500 parts per million of the test compound. The test plants were sprayed in accordance with the procedure described above for the Mite Foliage Spray Test so as to deliver approximately 100 milliliters of test solution to the leaves of each plant tested. The sprayed plants and controls were set aside for approximately one hour to allow the foliage to dry and were then placed in the greenhouse. After ten days the plants were visually inspected to determine the extent of foliage injury. A rating of 1 indicates no perceptible injury; 5 indicates the plant was dead and ratings of 2, 3 and 4 indicate intermediate degrees of injury based upon the number and extent to which leaves were injured.

[3] = system: southern armyworm (Spodoptera eridania, (Cram.)); assay: Armyworm Immersion Test; conditions: for LC50: Spodoptera eridania, 72 h, immersion (contact), 3 days, read-out: Imm LD50, Armyworm; for contact vs stomach poison, army worm (in words): immersion vs bait; for (Imm/Bait), Armyworm: ratio immersion/bait LD50
Description: as §1
The test organism used was the fourth instar larvae of the southern armyworm (Spodoptera eridania, (Cram.)) reared on Tendergreen beans in a room where temperature was held at 80° ± 5° F. and relaitve humidity 50 ± 5 percent.
Ten randomly selected larvae were thoroughly wetted in a formulated mixture of the chemical (50 ml) by pouring the insects and formulation from one beaker to another six times. Excess liquid was removed by transferring the larvae to paper towels. An equivalent amount of a water solution containing acetone and emulsifier in the same concentrations as the insecticidal mixture but without the candidate insecticide was applied in the same manner as a controls for the experiment. When dry, 5 larvae were placed in each of two 9-cm Petri dishes lined with filter paper and containing one fully expanded Tendergreen bean leaf per dish as food.
The closed dishes were held at 80°-85° F. for 3 days. Although the larvae can easily consume the whole leaf within 24 hours, no more food was added. Check larvae remained vigorous during the entire holding period. At the end of the holding period larvae which were unable to move the length of the body, even upon stimulation, were considered dead.
(§4) In Table 1 are presented insect and rat toxicity data (bait tests) on a comparative basis of the compounds described above. […] Rat toxicity is also more meaningfully compared on the basis of molar weight LD50 values. The relative efficacy of the parent compounds as compared to the previously known derivatives and as compared to the new compounds of this invention is also shown in Table 1. The ratio of efficacy as contact poisons (immersion/bait) of the compounds tested against Armyworm and House Fly is presented in Table 2 along with the results of the phytotoxicity tests of the compounds on bean, corn, tomato and cotton.

[4] = system: bean; assay: Phytotoxicity Test, bean; conditions: 2500 parts per million; ten days
Description: as §1, §3

[5] = system: cotton; assay: Phytotoxicity Test, cotton; conditions: for Phytotoxicity, Cotton: 2500 parts per million, ten days; for phytotoxicity to cotton (in words): text statement
Description: as §1, §3

[6] = system: Mexican bean beetle (Epilachna varivestis, Muls.); assay: Mexican Bean Beetle Leaf Spray Test; conditions: 72 h, 3 days, read-out: Insect LD50, Beetle
Description: as §1
Mexican Bean Beetle Leaf Spray Test
Fourth instar lavae of the Mexican bean beetle (Epilachna varivestis, Muls.), reared on Tendergreen bean plants at a temperature of 80°±5° F. and 50±5 per cent relative humidity, were the test insects.
The test compounds were formulated by diluting the stock suspension with water to give a suspension containing 500 parts of test compound per million parts of final formulation. Potted Tendergreen bean plants of standard height and age were placed on a revolving turntable and sprayed with 100-110 milliliters of test comound formulation by use of a DeVilbiss spray gun set at 10 psig air pressure. This application, which lasted 25 seconds, was sufficient to wet plants to run-off. As a control, 100-110 milliliters of a water-acetone-emulsifier solution containing no test compound were also sprayed on infested plants. When dry, the paired leaves were separated and each was placed in a 9 centimeter Petri dish lined with moistened filter paper. Five randomly selected larvae were introduced into each dish, and the dishes were closed. The closed dishes were labeled and held at a temperature of 80°±5° F, for 3 days. Although the larvae could easily consume the leaf within 24 to 48 hours, no more food was added. Larvae which were unable to move the length of the body, even upon stimulation, were considered dead.

[7] = system: corn; assay: Phytotoxicity Test, corn; conditions: 2500 parts per million; ten days
Description: as §1
as §3, with “After ten days the plants were visually inspected to determine the extent of foliage injury. A rating of 1 indicates no perceptible injury; 5 indicates the plant was dead and ratings of 2, 3 and 4 indicate intermediate degrees of injury based upon the number and extent to which leaves were injured.” left out

[8] = system: tomato; assay: Phytotoxicity Test, tomato; conditions: 2500 parts per million; ten days
Description: as §1
as §3, with “After ten days the plants were visually inspected to determine the extent of foliage injury. A rating of 1 indicates no perceptible injury; 5 indicates the plant was dead and ratings of 2, 3 and 4 indicate intermediate degrees of injury based upon the number and extent to which leaves were injured.” left out

[9] = system: insects; assay: Insect toxicity, overall; conditions: text statement
Description: as §2, §1, §4

Compound: CNC(=O)ON=C(C)SC [Compound 1, O-(methylcarbamoyl) S-methyl acetothiolhydroximate]
- LC50 [1]: 500 µg/mL (≈ 3080 µM)
- phytotoxicity (in words) [2]: phytotoxic to one or more of the crop plants
- LC50 [3]: 8 µg/mL (≈ 49.3 µM)
- contact vs stomach poison, army worm (in words) [3]: significantly more toxic as stomach poisons than as contact poisons
- (Imm/Bait), Armyworm [3]: 2
- Phytotoxicity, Bean [4]: BuCl 2
- Phytotoxicity, Cotton [5]: *Bu 3
- phytotoxicity to cotton (in words) [5]: so great as to significantly curtail the use of this otherwise highly desirable pesticide on cotton
- LC50 [6]: 70 µg/mL (≈ 432 µM)

Compound: CNC(=O)ON=C(C)SC(C)C [Compound 2]
- LC50 [1]: 450 µg/mL (≈ 2370 µM)
- Phytotoxicity, Corn [7]: Bu 2
- phytotoxicity (in words) [2]: phytotoxic to one or more of the crop plants
- LC50 [3]: 53 µg/mL (≈ 279 µM)
- contact vs stomach poison, army worm (in words) [3]: significantly more toxic as stomach poisons than as contact poisons
- (Imm/Bait), Armyworm [3]: 3.1
- Phytotoxicity, Bean [4]: Bu 2
- Phytotoxicity, Cotton [5]: Bu 2
- LC50 [6]: 30 µg/mL (≈ 158 µM)

Compound: CCSC(C)=NOC(=O)NC [Compound 3]
- LC50 [1]: 250 µg/mL (≈ 1420 µM)
- Phytotoxicity, Tomato [8]: 2
- Phytotoxicity, Bean [4]: 2
- Phytotoxicity, Cotton [5]: 2
- LC50 [6]: 38 µg/mL (≈ 216 µM)

Compound: CSC(C)=NOC(=O)N(C)Sc1ccc(Cl)cc1 [Compound 4]
- LC50 [1]: 500 µg/mL (≈ 1640 µM)
- LC50 [3]: 47 µg/mL (≈ 154 µM)
- (Imm/Bait), Armyworm [3]: 0.47
- Phytotoxicity, Bean [4]: Trif. 3
- Phytotoxicity, Cotton [5]: *Bu 3
- LC50 [6]: 70 µg/mL (≈ 230 µM)

Compound: CC(=NOC(=O)N(C)Sc1ccc(Cl)cc1)SC(C)C [Compound 5]
- LC50 [1]: 58 µg/mL (≈ 174 µM)
- LC50 [3]: 4.5 µg/mL (≈ 13.5 µM)
- (Imm/Bait), Armyworm [3]: 0.15
- Phytotoxicity, Bean [4]: Trif. 3
- Phytotoxicity, Cotton [5]: Bu 2
- LC50 [6]: 50 µg/mL (≈ 150 µM)

Compound: CSC(C)=NOC(=O)N(C)Sc1ccc(C)cc1 [Compound 6]
- LC50 [1]: 95 µg/mL (≈ 334 µM)
- LC50 [3]: 10 µg/mL (≈ 35.2 µM)
- (Imm/Bait), Armyworm [3]: 1.7
- Phytotoxicity, Cotton [5]: Bu 2
- LC50 [6]: 15 µg/mL (≈ 52.7 µM)

Compound: CC(=NOC(=O)N(C)Sc1ccc(C)cc1)SC(C)C [Compound 7]
- LC50 [1]: 42 µg/mL (≈ 134 µM)
- LC50 [3]: 14.4 µg/mL (≈ 46.1 µM)
- (Imm/Bait), Armyworm [3]: 1.2
- LC50 [6]: 15 µg/mL (≈ 48 µM)

Compound: CSC(C)=NOC(=O)N(C)Sc1ccc(C(C)(C)C)cc1 [Compound 8, O-[N-Methyl-N-[4-(t-butylphenyl)sulfenyl]carbamoyl] S-Methyl Acetothiolhydroximate]
- LC50 [1]: 380 µg/mL (≈ 1160 µM)
- phytotoxicity (in words) [2]: very low phytotoxicity
- LC50 [3]: 4 µg/mL (≈ 12.3 µM)
- contact vs stomach poison, army worm (in words) [3]: outstanding contact poison
- (Imm/Bait), Armyworm [3]: 1
- insect toxicity / pesticidal activity (in words) [9]: dramatic improvement in toxicity against all insects tested with the exception of house fly
- insect toxicity / pesticidal activity (in words) ([9]; listed as O-[ N-methyl-N-[4-(t-butylphenyl)sulfenyl] carbamoyl] S-methyl acetothiolhydroxi): exceptionally high insecticidal activity against aphid, armyworm and bean beetle
- Phytotoxicity, Cotton [5]: Bu 2
- phytotoxicity to cotton (in words) [5]: moderate leaf burn injury
- LC50 [6]: 20 µg/mL (≈ 61.3 µM)

Compound: CC(=NOC(=O)N(C)Sc1ccc(C(C)(C)C)cc1)SC(C)C [Compound 9, O-[N-Methyl-N-[4-(t-Butylphenyl)sulfenyl]carbamoyl] S-Isopropyl Thiolacetohydroximate]
- LC50 [1]: 42 µg/mL (≈ 118 µM)
- phytotoxicity (in words) [2]: extremely low phytotoxicity
- LC50 [3]: 5 µg/mL (≈ 14.1 µM)
- (Imm/Bait), Armyworm [3]: 0.25
- contact / stomach poison properties for insects (in words) [9]: dramatically superior contact poison characteristics
- insect toxicity / pesticidal activity (in words) [9]: dramatic improvement in activity against all insect species, again with the exception of house fly
- contact / stomach poison properties for insects (in words) ([9]; listed as O-[ N-methyl-N-[4-(t-butylphenyl) sulfenyl] carbamoyl] S-isopropyl thiolacetohyd): outstanding stomach poison against insects and also appears to be the most powerful contact poison for insects among all of the compositions tested
- LC50 [6]: 30 µg/mL (≈ 84.6 µM)

Source: US3998963A, “Tertiary butyl substituted carbamoyl oxime pesticides” (priority 1975, dated 1976)
